System: Pseudomonas infections caused by known producers of GAT I
Experiment: Mouse protection test, Pseudomonas infection
Assay type: in vivo, CF1 (Carworth Farms) mice
Settings: CF1 mice 18 to 20 g
Description: B. Mouse protection tests were performed in the usual manner using CF1 (Carworth Farms) mice weighing 18 to 20 g. each. […] Thus, the compounds of this invention may be used to control or eradicate susceptible bacterial strains in warm blooded animals, particularly in laboratory animals.

CN[C@@H]1[C@@H](O)[C@@H](O[C@@H]2[C@@H](O)[C@H](O[C@H]3OC(CN)=CC[C@H]3N)[C@@H](N)C[C@H]2N)OC[C@]1(C)O [sisomicin]
protection (mouse protection test, PD50): slight protection

Reference: patent US4169141A, “1-Peptidyl derivatives of di-O-aminoglycosyl-1,3-diaminocyclitol antibacterial agents” (priority 1978, dated 1979)
